Experimental data from patent US12559470B2, “FGFR inhibitors and uses thereof” (University of Southern California, priority 2018, dated 2026).

Target: FGFR2 (Homo sapiens, UniProt P21802)
Experiment: In vitro inhibitory assay (IC50) against FGFR2
Assay type: biochemical
Description: The efficacy of the compounds to inhibit the kinase activity of FGFRs was measured by the determination of the IC50 value.
The results are listed in Table 4 expressed as IC50 values (the concentration of compound at which 50% of the enzyme activity is inhibited).

Chain of FGFR2 (P21802 22-821): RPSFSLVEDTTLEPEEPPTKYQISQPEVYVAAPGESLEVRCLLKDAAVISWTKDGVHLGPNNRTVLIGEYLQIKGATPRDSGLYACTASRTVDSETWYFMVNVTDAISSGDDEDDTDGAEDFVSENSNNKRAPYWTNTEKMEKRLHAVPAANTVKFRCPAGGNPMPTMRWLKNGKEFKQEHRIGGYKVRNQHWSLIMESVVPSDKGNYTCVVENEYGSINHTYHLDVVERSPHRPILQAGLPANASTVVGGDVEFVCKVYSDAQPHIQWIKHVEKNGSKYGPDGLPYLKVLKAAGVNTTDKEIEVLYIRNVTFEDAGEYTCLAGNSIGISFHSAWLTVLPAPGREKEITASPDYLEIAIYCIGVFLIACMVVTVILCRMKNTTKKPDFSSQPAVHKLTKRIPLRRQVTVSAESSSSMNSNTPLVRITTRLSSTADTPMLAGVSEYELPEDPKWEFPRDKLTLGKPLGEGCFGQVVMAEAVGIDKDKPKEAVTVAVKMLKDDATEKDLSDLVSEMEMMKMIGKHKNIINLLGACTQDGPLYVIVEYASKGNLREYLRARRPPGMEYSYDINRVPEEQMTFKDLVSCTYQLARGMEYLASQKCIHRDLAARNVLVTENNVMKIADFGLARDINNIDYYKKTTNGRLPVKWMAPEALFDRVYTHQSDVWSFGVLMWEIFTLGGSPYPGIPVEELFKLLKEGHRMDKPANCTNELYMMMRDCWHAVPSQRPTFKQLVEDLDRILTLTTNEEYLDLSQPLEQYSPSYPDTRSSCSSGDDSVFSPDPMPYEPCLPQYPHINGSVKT

IC50: 6 nM
Structure (SMILES): CCN1CCN(c2ccc(Nc3cc(-c4cccnc4Nc4c(Cl)c(OC)cc(OC)c4Cl)ncn3)cc2)CC1 [Compound 1, 6-(2-((2,6-dichloro-3,5-dimethoxyphenyl)amino)pyridin-3-yl)-N-(4-(4-ethylpiperazin-1-yl)phenyl)pyrimidin-4-amine]
